The text below walks through data of patent US20240042051A1, “MCL-1 INHIBITOR ANTIBODY-DRUG CONJUGATES AND METHODS OF USE” (Novartis AG, priority 2020, published 2024).

One assay deals with KMS27 xenografts. The experiment in a line: KMS27 multiple myeloma xenograft, tumor growth inhibition and delay. The conditions noted are these: 50 mg/kg QD3, PO, single agent. It is filed as in vivo, NSG mice. The protocol: The in vivo therapeutic effect of two CD48-targeting MCL-1 ADCs formulated in Phosphate-Buffered Saline (PBS) was determined in KMS27 multiple myeloma model after intravenous (IV) administration.
KMS27 cells, obtained from JCRB, were cultured in RPMI supplemented with 10% FBS. Cells were resuspended in 50% matrigel (BD Biosciences) and 0.1 ml containing 10×10^6 cells were subcutaneously inoculated into the right flank of female NSG mice, provided by Jax. When tumors reached the appropriate volume, mice were randomized, 6 animals per group, using Easy stat software. Anti-CD48 NY920_CysmAb Fc silent, anti-CD48 NY938_CysmAb Fc silent, anti-CD48 NY920_CysmAb Fc silent_L42-P1 and anti-CD48 NY938_CysmAb Fc silent_L42-P1 (2.5 and/or 5 mg/kg) were injected once IV in PBS in combination with ABT-199 (50 mg/kg, PO for 3 consecutive days=QD3 in PEG/ethanol/phosal). Mice body weight was monitored three times a week and tumor size measured using electronic calipers. Tumor volume was estimated by measuring the minimum and maximum tumor diameters using the formula: (minimum diameter)^2 (maximum diameter)/2. […]
With DTV (Delta Tumor Volume) at Dx, calculated being TV at Dx-TV at Randomization. Tumor Growth Delay (TGD) was calculated as the number of days required for the median tumor volume in each group to reach back the starting tumor volume (at randomization). […]

The next assay has as its system KMS-21-BM xenografts. The experiment in a line: KMS-21-BM multiple myeloma xenograft, tumor growth inhibition and delay. It is filed as in vivo, NSG mice. Particulars: 0.5 mg/kg QD, single agent. The protocol: The in vivo therapeutic effect of a CD48-targeting MCL-1 ADC formulated in Phosphate-Buffered Saline (PBS) was determined in KMS-21-BM multiple myeloma model after intravenous (IV) administration.
KMS-21-BM cells, obtained from JCRB, were cultured in RPMI supplemented with 10% FBS. Cells were resuspended in 100% matrigel (BD Biosciences) and 0.1 ml containing 10×10^6 cells were subcutaneously inoculated into the right flank of female NSG mice, provided by Jax. When tumors reached the appropriate volume, mice were randomized, 6 animals per group, using Easy stat software. IgG1-Linker-Payload Fc WT, anti-CD48 NY920_CysmAb Fc WT, anti-CD48 NY920_CysmAb Fc WT_L42-P1 (10 and/or 30 mg/kg) and Bortezomib (0.5 mg/kg) were injected, alone or in combination, once IV in PBS and NaCl 0.9%, respectively. Mice body weight was monitored three times a week and tumor size measured using electronic calipers. Tumor volume was estimated by measuring the minimum and maximum tumor diameters using the formula: (minimum diameter)^2 (maximum diameter)/2. Tumor growth inhibition on day 21 was calculated using the formula: […]
With DTV (Delta Tumor Volume) at Dx, calculated being TV at Dx−TV at Randomization. Tumor Growth Delay (TGD) was calculated as the number of days required for the median tumor volume in each group to reach 500 mm^3. […]

The test system of a further assay is KMS-27. As to the kind of experiment: CellTiter-Glo proliferation assay (Example 7). It is filed as cell-based. The conditions noted are these: 5 days. The protocol: (§1) The CD48 MCL-1 antibody drug conjugates were tested against three endogenous cancer cell lines: NCI-H929 (ATCC No. CRL-9068 cultured in RPMI-1640+10% FBS+0.05 mM 2-mercaptoethanol), KMS-21 BM (JCRB No. JCRB1185 cultured in RPMI-1640+10% FBS) and KMS-27 (JCRB No. JCRB1188 cultured in RPMI-1640+10% FBS).
(§2) The ability of the MCL-1 antibody drug conjugates to inhibit cell proliferation and survival was assessed using the Promega CellTiter-Glo® proliferation assay. ADCs were generated generally as described in Example 6. Cell lines were cultured in media that is optimal for their growth at 5% CO2, 37° C. in a tissue culture incubator. Prior to seeding for the proliferation assay, the cells were split at least 2 days before the assay to ensure optimal growth density. On the day of seeding, cell viability and cell density were determined using a cell counter (Vi-Cell XR Cell Viability Analyzer, Beckman Coulter). Cells with higher than 85% viability were seeded in white clear bottom 384-well TC treated plates (Corning cat. #3765). Cells were seeded at a density of 1,000 cells per well in 45 μL of standard growth media. Plates were incubated at 5% CO2, 37° C. overnight in a tissue culture incubator. The next day, free MCL-1 payload (P1), targeting MCL-1 ADCs, and non-targeting isotype (IgG) ADCs were prepared at 10× in standard growth media. The prepared MCL-1 payload (P1) treatment was then added to the cells resulting in final concentrations of 0.005-100 nM and a final volume of 50 uL per well. The prepared CD48 targeting and isotype matched non-targeting control ADC treatments were added to the cells resulting in final concentrations of 0.015-300 nM and a final volume of 50 uL per well. Each drug concentration was tested in quadruplets. Plates were incubated at 5% CO2, 37° C. for 5 days in a tissue culture incubator, after which cell viability was assessed through the addition of 25 μL of CellTiter Glo® (Promega, cat #G7573), a reagent which lyses cells and measures total adenosine triphosphate (ATP) content. Plates were incubated at room temperature for 10 minutes to stabilize luminescent signals prior to reading using a luminescence reader (EnVision Multilabel Plate Reader, PerkinElmer). To evaluate the effect of the drug treatments, luminescent counts from wells containing untreated cells (100% viability) were used to normalize treated samples. A variable slope model was applied to fit a nonlinear regression curve to the data in GraphPad PRISM version 7.02 software. IC50 and Amax values were extrapolated from the resultant curves.
(In general: ATP-based viability assays read luminescence as a measure of living cells.)

In another assay the test system is KMS-21-BM. The experiment in a line: CellTiter-Glo proliferation assay (Example 7). It is filed as cell-based. Particulars: 5 days. The protocol: as §1, §2
The next assay relates to NCI-H929. As to the kind of experiment: CellTiter-Glo proliferation assay (Example 7). Particulars: 5 days. It is filed as cell-based. The method, then: as §1, §2
For assay [1], the system named is NCI-H929, KMS-21 BM and KMS-27 cancer cell lines. As to the kind of experiment: CellTiter-Glo proliferation assay (Example 7), summary over cell lines. It is filed as cell-based. Particulars: read-out: IC50 values, range over representative cancer cell lines. The protocol: as §1
The ability of the MCL-1 antibody drug conjugates to inhibit cell proliferation and survival was assessed using the Promega CellTiter-Glo® proliferation assay. ADCs were generated generally as described in Example 6. Cell lines were cultured in media that is optimal for their growth at 5% CO2, 37° C. in a tissue culture incubator. Prior to seeding for the proliferation assay, the cells were split at least 2 days before the assay to ensure optimal growth density. On the day of seeding, cell viability and cell density were determined using a cell counter (Vi-Cell XR Cell Viability Analyzer, Beckman Coulter). […] Plates were incubated at 5% CO2, 37° C. for 5 days in a tissue culture incubator, after which cell viability was assessed through the addition of 25 μL of CellTiter Glo® (Promega, cat #G7573), a reagent which lyses cells and measures total adenosine triphosphate (ATP) content. Plates were incubated at room temperature for 10 minutes to stabilize luminescent signals prior to reading using a luminescence reader (EnVision Multilabel Plate Reader, PerkinElmer). […]

For the compound `CC1(C)CCC(CN2CCN(c3ccc(C(=O)NS(=O)(=O)c4ccc(NCC5CCOCC5)c([N+](=O)[O-])c4)c(Oc4cnc5[nH]ccc5c4)c3)CC2)=C(c2ccc(Cl)cc2)C1` [ABT-199, venetoclax], the “% TGI (d4)” value in the assay with KMS27 xenografts is 120.82%. In addition, the TGD with KMS27 xenografts (to reach back starting tumor volume) is on record as 6.27 days.

With `CC(C)C[C@H](NC(=O)[C@H](Cc1ccccc1)NC(=O)c1cnccn1)B(O)O` [Bortezomib], in the assay with KMS-21-BM xenografts (IV (once)), the “% TGI (d21)” value turned out to be 88.09%. For the same compound, in the assay on KMS-21-BM xenografts (IV, median tumor volume to reach 500 mm^3), the TGD amounted to 42.53 days.

For the compound `COc1ccccc1-c1nccc(COc2ccccc2C[C@@H](Oc2ncnc3sc(-c4ccc(F)cc4)c(-c4ccc(OCCN5CCN(C)CC5)c(Cl)c4C)c23)C(=O)O)n1` [P1, (2R)-2-[5-[3-chloro-2-methyl-4-[2-(4-methylpiperazin-1-yl)ethoxy]phenyl]-6-(4-fluorophenyl)thieno[2,3-d]pyrimidin-4-yl]oxy-3-[2-[[2-(2-methoxyphenyl)pyrimidin-4-yl]methoxy]phenyl]propanoic acid], the 50% inhibitory concentration (IC50) in the assay with KMS-27 (120 h) was 11.2 nM; with KMS-21-BM (120 h), 1.16 nM; in the assay with NCI-H929 (Homo sapiens, 120 h) it was 4.73 nM; in assay [1] it was 1.16 to 11.2 nM. The “Amax (Span)” value with KMS-27 worked out at 99; in the assay on KMS-21-BM it was 100.9; in the assay on NCI-H929 it was 110.3.

As usually defined, the IC50 is the midpoint of a concentration-inhibition curve.
